This note sets out measurements from the METLIN SMRT retention time set (Domingo-Almenara et al. 2019).

A short description of this data set: gradient 5% acetonitrile 3 min, to 50% in 2 min, to 85% in 15 min, held 3 min, 100 µL/min. The note with it: column: Zorbax Extend-C18 2.1 x 50 mm; eluents: water / acetonitrile, 0.1% formic acid. The method, boiled down: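 Over 3 months, pure standards in mixtures of ~100 molecules were run by HPLC coupled to a quadrupole time-of-flight mass spectrometer in positive and negative ionization mode. The column was a Zorbax Extend-C18 (2.1 × 50 mm, 1.8 μm) at 100 μL/min, eluted with water and acetonitrile each holding 0.1% formic acid, with 40 μL dead and 900 μL dwell volumes. Retention time was determined from adduct peaks chosen by software and checked manually.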
`COc1cc(OC)c(NC(=O)CN2C(=O)C(C)(C)c3ccccc32)cc1Cl` displayed an RP-LC retention time of 954 s.

Compound `CCCCOc1ccc(-c2cc3c(N4CCN(C)CC4)nccn3n2)cc1` yielded an RP-LC retention time of 754 s.

For the compound `O=C(NCc1ccc(F)cc1Cl)C1=C2CCCN2c2ccccc2S1(=O)=O`, the RP-LC retention time came out at 913 s.

Regarding `O=C(Nc1ccc(-c2ccc3nnc(-c4ccncc4)n3n2)cc1)c1cccc(Cl)c1`, the RP-LC retention time was 675 s.

Compound `Cc1cc(-c2nnc(-c3ccc(F)cc3)o2)c(C)n1CC(=O)N1CCCCC1` showed an RP-LC retention time of 877 s.

`CCc1nc2c(c(=O)n1CC(=O)Nc1ccc(OC)cc1)CN(Cc1ccccc1)CC2` showed an RP-LC retention time of 635 s.

For the compound `CC(C)C1c2nccn2CCCN1C(=O)Cn1c(=O)oc2ccccc21` (centres undefined), the RP-LC retention time came to 603 s.

`O=C(NCc1csc(C2CCCN(C(=O)C3CCCCC3)C2)n1)C1CCC1` (centres undefined) registered an RP-LC retention time of 774 s.

Regarding `O=C(Cc1nc(-c2ccccn2)n[nH]1)Nc1ccccc1`, the RP-LC retention time came out at 596 s.

With `Cc1ccc(F)c(NC(=O)c2sc(-c3cn(C)c4ncccc34)nc2C)c1`, the RP-LC retention time came to 874 s.

With `CCSc1nnc(-c2nn(C)c3c2CN(S(=O)(=O)c2ccc(C(C)C)cc2)CC3)n1CC`, the RP-LC retention time was 1090 s.

In the case of `CCOc1ccc(-c2csc(Cc3nc(-c4ccc(C)cc4)no3)n2)cc1`, the RP-LC retention time came to 1310 s.

`COc1cccc(-n2c(=O)c(C(=O)NCc3cc(F)cc(F)c3)c(O)c3cccnc32)c1` returned an RP-LC retention time of 1170 s.

In the case of `CC(C)NC(=O)c1nc(-c2cn(-c3cccc(F)c3)nn2)no1`, the RP-LC retention time is 834 s.

`CC(C)c1noc(C2(NC(=O)c3ccccc3F)CCCCC2)n1` yielded an RP-LC retention time of 1020 s.

In turn, `COCCCn1c(=O)c2ccccc2n(Cc2nc(-c3ccc(C)c(C)c3)no2)c1=O` yielded an RP-LC retention time of 1120 s.

As to `CCN(CC)C(=O)c1ccc(-c2nc3cc(NS(=O)(=O)c4ccccc4F)ccc3n2C)cc1`, the RP-LC retention time came to 679 s.

`O=c1c2ccccc2c(-c2nc(-c3ccncc3)no2)cn1-c1cccc(F)c1` had an RP-LC retention time of 1050 s.

With `CC(C)[C@H](NC(=O)OCc1ccccc1)C(=O)N[C@H](C=O)Cc1ccccc1`, the RP-LC retention time amounted to 773 s.

`COc1cc(C(=O)Nc2nnc(SCc3nnc(-c4ccccc4C)o3)s2)cc(OC)c1OC` displayed an RP-LC retention time of 942 s.

In turn, `CCCCc1nc(N2CCN(C(=O)c3ccco3)CC2)c(C#N)c2c1COC(C)(C)C2` returned an RP-LC retention time of 1190 s.

In turn, `CCCS(=O)(=O)Nc1cccc(-c2cn3ccccc3n2)c1` had an RP-LC retention time of 608 s.

Take `Cc1ccc(C(=O)NC2(c3nc(-c4ccccc4)no3)CCCCC2)cc1C`: the RP-LC retention time was 1250 s.

`Cc1cccc(C(C)C)c1NC(=O)C1CCN(S(C)(=O)=O)c2ccccc2O1` (centres undefined) showed an RP-LC retention time of 957 s.

`O=C1CCc2cc(S(=O)(=O)NCCc3ccc(Cl)cc3)cc3c2N1CCC3` showed an RP-LC retention time of 903 s.

The compound `COc1ccc(N2CCN(c3nc(C(=O)N4CCN(C(C)C)CC4)cs3)CC2)cc1` came in with an RP-LC retention time of 627 s.

Consider `O=C(CSc1nnc(-c2cccnc2)o1)c1ccc(OC(F)F)cc1`, for which the RP-LC retention time amounted to 780 s.

For `O=C(NCc1ccccc1Cl)c1c(O)c2cccnc2n(-c2ccc(F)cc2)c1=O`, the RP-LC retention time is 1240 s.

Compound `Cc1cc2nc(CN3CCN(Cc4ccccc4)CC3)c(=O)[nH]c2cc1C` registered an RP-LC retention time of 620 s.

`O=C(Nc1cncc(-c2nc3ccccc3o2)c1)c1cccc(Cl)c1` registered an RP-LC retention time of 1010 s.

For the compound `CC1=C(c2ccccc2)S(=O)(=O)N=C1N1CCCN(C(=O)c2ccc(F)cc2)CC1`, the RP-LC retention time stood at 805 s.

As for `Cc1nc(N2CCOCC2)c2c(C(=O)Nc3ccc(Cl)cc3)c(C)oc2n1`, the RP-LC retention time worked out at 883 s.

Compound `Cc1ccc(-c2nnc(-c3ccc(Br)cc3)o2)cc1S(=O)(=O)N1CCCC1` displayed an RP-LC retention time of 1190 s.

`CCCCNC(=O)c1ccc2c(c1)NC(=O)C(CC(C)C)N2` (centres undefined) showed an RP-LC retention time of 754 s.

In the case of `Cc1csc(-c2ccc(N3CCN(C(=O)Cc4cccc(F)c4)CC3)nc2)n1`, the RP-LC retention time was 849 s.

The compound `COC(=O)C1=C(CN2CCN(C)CC2)NC(=O)NC1c1ccc(OC)c(OC)c1` (centres undefined) gave an RP-LC retention time of 567 s.

Turning to `Cc1ccccc1NS(=O)(=O)c1cc2c(s1)CCN(C(=O)C1CCC1)C2`, the RP-LC retention time is 832 s.

`COc1ccc(-c2nnc(-c3nc(NCc4ccc(C)o4)c4ccccc4n3)o2)cc1` displayed an RP-LC retention time of 985 s.

Take `CC(=O)N1CCc2cc(C(=O)N(C)C)ccc21`: the RP-LC retention time was 595 s.

`Cc1cccc(N2CCN(C(=O)c3csc(C(=O)NC4CC4)n3)CC2)c1`: the RP-LC retention time came to 809 s.

Compound `C=CCNC(=O)c1cn(-c2cc(-c3nc(C(C)C)no3)ccn2)cn1` came in with an RP-LC retention time of 820 s.

Take `O=C1Nc2ccccc2SC1C(=O)N1CCC(C(=O)N2CCN(c3ccccc3F)CC2)CC1` (centres undefined): the RP-LC retention time is 784 s.

`COc1ccc(CCNC(=O)c2ccco2)cc1OC` returned an RP-LC retention time of 642 s.

Compound `CCn1cc2c3c(cccc31)CN(C(=O)Nc1ccc(Cl)cc1F)CC2` gave an RP-LC retention time of 1050 s.

On to `CO[C@H]1C(=O)N(C(C)C)[C@H]1C1CCN(C(=O)Nc2ccc(C)c(C)c2)CC1`, for which the RP-LC retention time is 820 s.

In turn, `CN(C)CC1(O)CCC2(CCN(C(=O)CC3CCCC3)CC2)CC1` yielded an RP-LC retention time of 598 s.

With `CCOC(=O)C1=C(C)NC2=C(C(=O)C(C(=O)OC)C(C)C2)C1c1cccc(Cl)c1` (centres undefined), the RP-LC retention time was 965 s.

The compound `O=C(O)C1CCc2sc(C(=O)N3CCCCCC3)cc2C1` (centres undefined) yielded an RP-LC retention time of 746 s.

For `CC(C)CC(=O)Nc1ccc(OCc2cc(C(=O)NC3CCCC3)no2)cc1`, the RP-LC retention time came out at 890 s.

As to `COc1cc(N2C=C(C(=O)N3CCCCC3)S(=O)(=O)c3ccccc32)cc(OC)c1OC`, the RP-LC retention time was 812 s.

Consider `O=C(NCCc1c[nH]c2ccccc12)C1COc2ccccc2O1` (centres undefined), for which the RP-LC retention time came to 866 s.

For `CCn1c(=O)n(CCN2CCOCC2)c(=O)c2cnc(-c3ccc(Cl)cc3)nc21`, the RP-LC retention time came out at 709 s.

For `COc1ccc2[nH]cc(CCNCc3ccc(Br)cc3)c2c1`, the RP-LC retention time was 764 s.

`O=C(c1ccc(CS(=O)(=O)c2ccc(Br)cc2)o1)N1CCN(c2ccccn2)CC1` registered an RP-LC retention time of 616 s.

`CC1=NS(=O)(=O)N(Cc2ccccc2)C=C1C(=O)OCc1cccc(C)c1` yielded an RP-LC retention time of 1140 s.

In turn, `O=C(NCCN1CCN(S(=O)(=O)c2ccc(C(F)(F)F)cc2)CC1)c1ccsc1` registered an RP-LC retention time of 610 s.

As to `O=C(NC1CCCC1)C1CCCN(c2nccn3nc(-c4ccccc4Cl)cc23)C1` (centres undefined), the RP-LC retention time is 915 s.

`CN(CCc1ccccn1)c1ccc2c(c1)C(=O)c1ccccc1-2`: the RP-LC retention time is 662 s.

Compound `COc1ccc(OCC(=O)N2CCN(c3cc(C(C)C)n4cnnc4n3)CC2)cc1` came in with an RP-LC retention time of 619 s.
